Values after ≈ are worked out from the molar mass of the structure shown.
Assays:
[1] = Solubility of SOL at different pH; format: physicochemical
Source text: It has been discovered herein that the solubility of the compounds described herein generally decreases with increasing pH. […] It has also been discovered herein that at certain pH levels, a stable aqueous suspension of the compounds may be prepared. That suspension may also be prepared from a reconstitutable powder for oral suspension (POS). However, it has also been discovered that at certain limiting pH levels, a threshold amount of the compounds described herein are in solution and therefore such an oral suspension may have a bitter taste that compromises the efficacy thereof, such as due to poor patient compliance.

[2] = Stability of SOL in the presence of excipients; format: physicochemical
Source text: It has unexpectedly been discovered that compounds described herein, such as SOL, are unstable in the presence of high relative amounts of sucralose. In another embodiment, the weight/weight ratio of API, such as SOL to sucralose is greater than about 3, greater than about 4, greater than about 5, greater than about 6, greater than about 7, greater than about 8, greater than about 9, or greater than about 10. Illustratively, the POS and suspension formulations described herein include one of more souring agents. It has unexpectedly been discovered that compounds described herein, such as SOL, are unstable in the presence of high relative amounts of citric acid. In another embodiment, the weight/weight ratio of API, such as SOL to citric acid is greater than about 50, greater than about 60, greater than about 70, greater than about 80, or greater than about 90. In another embodiment, the POS and suspension formulations described herein are substantially free of, or free of citric acid.

Question: Which results are given for `CC[C@H]1OC(=O)[C@@](C)(F)C(=O)[C@H](C)[C@@H](O[C@@H]2O[C@H](C)C[C@H](N(C)C)[C@H]2O)[C@](C)(OC)C[C@@H](C)C(=O)[C@H](C)[C@H]2N(CCCCn3cc(-c4cccc(N)c4)nn3)C(=O)O[C@]12C` [SOL, solithromycin]?
Answer: solubility ([1]; pH 5.7, aqueous buffer): 68000 µg/mL (≈ 80500 µM); solubility ([1]; pH 6.2, aqueous buffer): 860 µg/mL (≈ 1020 µM); solubility ([1]; pH 7.5, aqueous buffer): 70 µg/mL (≈ 82.8 µM); stability in the presence of citric acid ([2]; high relative amounts of citric acid): unstable; stability in the presence of sucralose ([2]; high relative amounts of sucralose): unstable

Reference: US20170224664A1, “POWDER ORAL SUSPENSION FORMULATIONS OF ANTIBACTERIAL AGENTS” (Cempra Pharmaceuticals, Inc., priority 2014, published 2017)
